Where a name gives a salt, the structure may show the parent alone.
Key:
[1] = target: T1, PI3Kβ (Homo sapiens, UniProt P42338); assay: Isozyme selectivity test: kinase assay of PI3Kβ (p110β assay); type: biochemical; details: recombinant truncated p110β, 7.5 ng protein/well
T1 construct: His6 (N); made in house; host or cells: S. frugiperda 9 (Sf9) insect cells
Text: [Isozyme Selectivity Test in PI3K]
Determination of IC50 Values of Compounds in Kinase Assays of PI3Kβ and PI3Kγ

[2] = tested on: IGF-1 induced AKT phosphorylation in A549 cells; assay: IGF-1 induced AKT phosphorylation assay (A549 cell assay); type: cell-based; details: Homo sapiens; A549 cells, 25 ng/ml IGF-1, phospho-AKT(Ser 473); read-out: average IC50 in the A549 cell assay
Method in brief: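 A549 cells stimulated with 25 ng/ml IGF-1 for 10 min at 37 °C, then fixed in formaldehyde/methanol. Phospho-AKT detected by cell ELISA (primary anti-phospho-AKT, HRP secondary, ECL luminescence); IC50 from inhibition curve.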

[3] = target: T2, PI3Kα (Homo sapiens, UniProt P42336); assay: Solid-phase lipid kinase assay of PI3Kα (p110α assay); type: biochemical; details: recombinant truncated human p110α, 10 μM ATP
T2 construct: His6 (N); made in house; host or cells: S. frugiperda 9 (Sf9) insect cells
T2 sequence (P42336 109-1068): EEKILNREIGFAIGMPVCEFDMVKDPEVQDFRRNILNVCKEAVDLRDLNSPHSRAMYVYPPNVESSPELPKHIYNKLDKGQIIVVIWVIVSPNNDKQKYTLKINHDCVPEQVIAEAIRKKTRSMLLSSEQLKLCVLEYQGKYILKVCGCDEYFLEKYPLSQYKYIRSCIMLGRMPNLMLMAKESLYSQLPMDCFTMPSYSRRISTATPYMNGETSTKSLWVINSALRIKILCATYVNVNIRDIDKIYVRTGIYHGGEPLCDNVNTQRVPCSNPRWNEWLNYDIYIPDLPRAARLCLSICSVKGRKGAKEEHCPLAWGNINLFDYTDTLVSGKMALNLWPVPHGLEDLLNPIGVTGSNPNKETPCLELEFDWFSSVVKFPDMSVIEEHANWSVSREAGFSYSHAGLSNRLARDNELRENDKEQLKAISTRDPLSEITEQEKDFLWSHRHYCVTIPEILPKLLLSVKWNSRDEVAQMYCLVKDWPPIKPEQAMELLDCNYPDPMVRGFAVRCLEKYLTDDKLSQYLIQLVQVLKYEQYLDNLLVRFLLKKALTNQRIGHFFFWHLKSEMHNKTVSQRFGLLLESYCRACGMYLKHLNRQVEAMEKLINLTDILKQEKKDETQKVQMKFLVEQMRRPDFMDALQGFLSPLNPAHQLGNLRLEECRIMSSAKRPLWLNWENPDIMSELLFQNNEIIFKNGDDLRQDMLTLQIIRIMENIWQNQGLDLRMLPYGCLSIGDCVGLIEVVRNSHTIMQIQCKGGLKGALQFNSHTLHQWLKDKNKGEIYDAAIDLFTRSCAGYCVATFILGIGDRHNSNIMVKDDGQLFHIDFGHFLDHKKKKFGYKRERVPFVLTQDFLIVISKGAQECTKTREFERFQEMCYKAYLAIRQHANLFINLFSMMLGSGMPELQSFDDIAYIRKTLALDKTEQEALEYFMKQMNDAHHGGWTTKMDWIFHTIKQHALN
Text: [Determination of IC50 Values of Compounds in Kinase Assay of PI3Kα]
LABORATORIES (Toronto, Canada). […] [γ^33P]ATP and unlabeled ATP were purchased from […] […] BIOTECH (Buckinghamshire, UK) and ROCHE DIAGNOSTICS (Mannheim, Germany), respectively. Scintillation cocktails and MicroScint PS™ were purchased from PACKARD (Meriden, Conn.). Maxisorp™ plates were purchased from NALGE NUNC INTERNATIONAL K.K. (Tokyo, Japan). All other chemicals not further specified were from WAKO PURE CHEMICALS (Osaka, Japan).
The plates were subsequently air-dried by incubation for at least 2 hours in a fume hood. The reaction was set up by mixing 25 μL/well of assay buffer 2×(100 mM MOPSO/NaOH, 0.2 M NaCl, pH 7.0, 8 mM MgCl2, 2 mg/mL BSA (fatty acid-free)), and 7.5 ng/well PI3Kα in the lipid pre-coated plate. 100× test compounds were added in 2% DMSO. The reaction was started by adding 20 μL/well of ATP mix (final 10 μM ATP; 0.05 μCi/well [γ^33P]ATP). After incubation at RT for 2 hours, the reaction was terminated by adding 50 μl/well stop solution (50 mM EDTA, pH 8.0). The plate was then washed twice with Tris-buffered saline (TBS, pH 7.4). MicroScint PS™ (PACKARD) scintillation mix was added at 100 μL/well, and radioactivity was counted using a TopCount™ (PACKARD) scintillation counter.
The inhibition percent at each concentration of compound was calculated, and IC50 values were determined from the inhibition of curve.

T1 sequence (P42338 109-1070): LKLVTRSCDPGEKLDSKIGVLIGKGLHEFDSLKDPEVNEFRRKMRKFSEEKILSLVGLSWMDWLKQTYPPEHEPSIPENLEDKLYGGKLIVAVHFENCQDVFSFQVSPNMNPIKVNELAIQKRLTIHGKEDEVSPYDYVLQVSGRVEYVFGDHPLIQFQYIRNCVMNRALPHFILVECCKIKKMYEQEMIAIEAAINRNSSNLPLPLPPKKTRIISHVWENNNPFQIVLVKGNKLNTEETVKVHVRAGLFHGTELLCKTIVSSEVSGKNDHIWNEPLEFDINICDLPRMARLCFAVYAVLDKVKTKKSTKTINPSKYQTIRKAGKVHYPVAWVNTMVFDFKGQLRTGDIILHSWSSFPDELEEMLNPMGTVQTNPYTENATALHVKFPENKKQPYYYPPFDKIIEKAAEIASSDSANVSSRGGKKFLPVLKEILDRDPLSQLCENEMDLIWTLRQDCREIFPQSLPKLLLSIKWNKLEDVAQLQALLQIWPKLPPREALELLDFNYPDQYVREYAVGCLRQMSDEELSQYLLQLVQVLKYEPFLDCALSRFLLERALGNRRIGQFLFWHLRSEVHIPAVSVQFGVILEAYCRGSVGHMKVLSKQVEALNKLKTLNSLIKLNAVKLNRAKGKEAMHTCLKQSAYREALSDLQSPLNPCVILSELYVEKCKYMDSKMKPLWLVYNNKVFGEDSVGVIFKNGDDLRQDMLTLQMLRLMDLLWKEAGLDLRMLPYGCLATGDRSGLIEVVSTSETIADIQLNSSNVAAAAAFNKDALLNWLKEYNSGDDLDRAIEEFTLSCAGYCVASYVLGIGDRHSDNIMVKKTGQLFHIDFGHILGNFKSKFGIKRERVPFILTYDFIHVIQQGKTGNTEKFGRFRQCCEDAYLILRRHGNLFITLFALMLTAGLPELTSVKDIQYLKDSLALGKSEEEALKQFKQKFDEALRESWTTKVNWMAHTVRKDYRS

SMILES | IC50 [1] [µM] | IC50 [2] [µM] | IC50 [3] [µM]
COc1c(OCCCN(C)C)ccc2c1N=C(NC(=O)c1ccc[n+]([O-])c1)N1CCN=C21 [Example 12, N-{8-[3-(dimethylamino)propoxy]-7-methoxy-2,3-dihydroimidazo[1,2-c]quinazolin-5-yl}nicotinamide 1-oxide] | > 0.1 | > 1 | > 0.1
COc1c(OCCCN2CCOCC2)ccc2c1N=C(NC(=O)c1ccc(CCN3CCCC3)nc1)N1CCN=C21 [Example 14, N-[7-methoxy-8-(3-morpholin-4-ylpropoxy)-2,3-dihydroimidazo[1,2-c]quinazolin-5-yl]-6-(2-pyrrolidin-1-ylethyl)nicotinamide] | 0.01 to 0.1 | > 1 | 0.01 to 0.1
COc1c(OCCCN2CCOCC2)ccc2c1N=C(NC(=O)c1ccc(NC3CCCC3)nc1)N1CCN=C21 [Example 15, 6-(cyclopentylamino)-N-[7-methoxy-8-(3-morpholin-4-ylpropoxy)-2,3-dihydroimidazo[1,2-c]quinazolin-5-yl]nicotinamide] | 0.01 to 0.1 | > 1 | 0.01 to 0.1
COc1c(OCCCN2CCOC[C@@H]2C)ccc2c1N=C(NC(=O)c1cccnc1)N1CCN=C21 [Example 17, N-{7-methoxy-8-[3-(3-methylmorpholin-4-yl)propoxy]-2,3-dihydroimidazo[1,2-c]quinazolin-5-yl}nicotinamide] | 0.01 to 0.1 |  | 0.01 to 0.1
COc1c(OCCC2CN(CC3CCC3)CCO2)ccc2c1N=C(NC(=O)c1cccnc1)N1CCN=C21 (stereo not shown) [Example 19, N-(8-{2-[4-(cyclobutylmethyl)morpholin-2-yl]ethoxy}-7-methoxy-2,3-dihydroimidazo[1,2-c]quinazolin-5-yl)nicotinamide] | < 0.01 | < 0.1 | < 0.01
COCCN1CCOC(CCOc2ccc3c(c2OC)N=C(NC(=O)c2cccnc2)N2CCN=C32)C1 (stereo not shown) [Example 20, N-(7-methoxy-8-{2-[4-(2-methoxyethyl)morpholin-2-yl]ethoxy}-2,3-dihydroimidazo[1,2-c]quinazolin-5-yl)nicotinamide] | < 0.01 | < 0.1 | < 0.01
CCN1CCOC(COc2ccc3c(c2OC)N=C(NC(=O)c2cccnc2)N2CCN=C32)C1 (stereo not shown) [Example 21, N-{8-[(4-ethylmorpholin-2-yl)methoxy]-7-methoxy-2,3-dihydroimidazo[1,2-c]quinazolin-5-yl}nicotinamide] | 0.01 to 0.1 | < 0.1 | 0.01 to 0.1
COc1c(OCCCN2CCOCC2)ccc2c1N=C(NC(=O)c1ccncn1)N1CCN=C21 [Example 24, N-[7-methoxy-8-(3-morpholin-4-ylpropoxy)-2,3-dihydroimidazo[1,2-c]quinazolin-5-yl]pyrimidine-4-carboxamide] | > 0.1 | > 1 | > 0.1
COc1c(OCCCN2CCOCC2)ccc2c1N=C(NC(=O)c1ccnc(N)n1)N1CCN=C21 [Example 25, 2-amino-N-[7-methoxy-8-(3-morpholin-4-ylpropoxy)-2,3-dihydroimidazo[1,2-c]quinazolin-5-yl]pyrimidine-4-carboxamide] | 0.01 to 0.1 | > 1 | 0.01 to 0.1
COc1c(OCCCN2CCOCC2)ccc2c1N=C(NC(=O)c1cn(C)cn1)N1CCN=C21 [Example 26, N-[7-methoxy-8-(3-morpholin-4-ylpropoxy)-2,3-dihydroimidazo[1,2-c]quinazolin-5-yl]-1-methyl-1H-imidazole-4-carboxamide] | 0.01 to 0.1 | > 1 | 0.01 to 0.1
COc1c(OCCCN2C[C@@H](C)O[C@@H](C)C2)ccc2c1N=C(NC(=O)c1cncnc1)N1CCN=C21 [Example 27, rel-N-(8-{3-[(2R,6S)-2,6-dimethylmorpholin-4-yl]propoxy}-7-methoxy-2,3-dihydroimidazo[1,2-c]quinazolin-5-yl)pyrimidine-5-carboxamide] | < 0.01 | < 0.1 | < 0.01
COc1c(OCCCN2C[C@@H](C)O[C@@H](C)C2)ccc2c1N=C(NC(=O)c1ccc(C)nc1)N1CCN=C21 [Example 28, rel-N-(8-{3-[(2R,6S)-2,6-dimethylmorpholin-4-yl]propoxy}-7-methoxy-2,3-dihydroimidazo[1,2-c]quinazolin-5-yl)-6-methylnicotinamide] | < 0.01 | < 0.1 | < 0.01
COc1c(OCCCN2C[C@@H](C)O[C@@H](C)C2)ccc2c1N=C(NC(=O)c1ccc(NC(C)=O)nc1)N1CCN=C21 [Example 29, rel-6-acetamido-N-(8-{3-[(2R,6S)-2,6-dimethylmorpholin-4-yl]propoxy}-7-methoxy-2,3-dihydroimidazo[1,2-c]quinazolin-5-yl)nicotinamide] | < 0.01 | < 0.1 | < 0.01
COc1c(OCCCN2C[C@@H](C)O[C@@H](C)C2)ccc2c1N=C(NC(=O)c1cnc(N)nc1)N1CCN=C21 [Example 38, rel-2-amino-N-(8-{3-[(2R,6S)-2,6-dimethylmorpholin-4-yl]propoxy}-7-methoxy-2,3-dihydroimidazo[1,2-c]quinazolin-5-yl)pyrimidine-5-carboxamide] | < 0.01 | < 0.1 | < 0.01
COc1c(OCCCN2C[C@@H](C)O[C@@H](C)C2)ccc2c1N=C(NC(=O)c1ccc(N)nc1)N1CCN=C21 [Example 39, rel-6-amino-N-(8-{3-[(2R,6S)-2,6-dimethylmorpholin-4-yl]propoxy}-7-methoxy-2,3-dihydroimidazo[1,2-c]quinazolin-5-yl)nicotinamide] | < 0.01 | < 0.1 | < 0.01
COCCCNc1ncc(C(=O)NC2=Nc3c(ccc(OCCCN4CCOCC4)c3OC)C3=NCCN23)cn1 [Example 41, N-[7-methoxy-8-(3-morpholin-4-ylpropoxy)-2,3-dihydroimidazo[1,2-c]quinazolin-5-yl]-2-[(3-methoxypropyl)amino]pyrimidine-5-carboxamide] | 0.01 to 0.1 | 0.1 to 1 | 0.01 to 0.1
COc1c(OCCCN2CCOCC2)ccc2c1N=C(NC(=O)c1cnc(NCCCN3CCOCC3)nc1)N1CCN=C21 [Example 43, N-[7-methoxy-8-(3-morpholin-4-ylpropoxy)-2,3-dihydroimidazo[1,2-c]quinazolin-5-yl]-2-[(3-morpholin-4-ylpropyl)amino]pyrimidine-5-carboxamide] | 0.01 to 0.1 | > 1 | 0.01 to 0.1
COc1c(OCCCN2CCOCC2)ccc2c1N=C(NC(=O)c1cnc(N3CCCC3)nc1)N1CCN=C21 [Example 47, N-[7-methoxy-8-(3-morpholin-4-ylpropoxy)-2,3-dihydroimidazo[1,2-c]quinazolin-5-yl]-2-pyrrolidin-1-ylpyrimidine-5-carboxamide] | 0.01 to 0.1 | < 0.1 | 0.01 to 0.1
COc1c(OCCCN2CCOCC2)ccc2c1N=C(NC(=O)c1cnc(N3CCN(C)CC3)nc1)N1CCN=C21 [Example 48, N-[7-methoxy-8-(3-morpholin-4-ylpropoxy)-2,3-dihydroimidazo[1,2-c]quinazolin-5-yl]-2-(4-methylpiperazin-1-yl)pyrimidine-5-carboxamide] | > 0.1 | > 1 | > 0.1
COc1c(OCCCN2CCOCC2)ccc2c1N=C(NC(=O)c1cnc(N3CCOCC3)nc1)N1CCN=C21 [Example 49, N-[7-methoxy-8-(3-morpholin-4-ylpropoxy)-2,3-dihydroimidazo[1,2-c]quinazolin-5-yl]-2-morpholin-4-ylpyrimidine-5-carboxamide] | 0.01 to 0.1 |  | 0.01 to 0.1
COc1c(OCCCN2CCOCC2)ccc2c1N=C(NC(=O)c1ccc(N3CCNCC3)nc1)N1CCN=C21 [Example 50, N-[7-methoxy-8-(3-morpholin-4-ylpropoxy)-2,3-dihydroimidazo[1,2-c]quinazolin-5-yl]-6-piperazin-1-ylnicotinamide hydrochloride] | 0.01 to 0.1 | > 1 | 0.01 to 0.1
COc1c(OCCCN2CCOCC2)ccc2c1N=C(NC(=O)c1ccc(NCc3ccc(F)cc3)nc1)N1CCN=C21 [Example 53, 6-[(4-fluorobenzyl)amino]-N-[7-methoxy-8-(3-morpholin-4-ylpropoxy)-2,3-dihydroimidazo[1,2-c]quinazolin-5-yl]nicotinamide] | 0.01 to 0.1 | > 1 | 0.01 to 0.1

Reference: patent publication USRE46856E1, “Substituted 2,3-dihydroimidazo[1,2-c]quinazoline derivatives useful for treating hyper-proliferative disorders and diseases associated with angiogenesis” (Bayer Intellectual Property GmbH, priority 2006, dated 2018)
